Experimental data: US12146004B2, “Polymyxin compounds and uses thereof” (priority 2014, dated 2024)
≈ marks a conversion by molar mass, not a printed value. Like-named read-outs stand apart in the source and are kept apart here.

Assays:
Type in all cases: cell-based
Acinetobacter baumannii = tested on: Acinetobacter baumannii
Procedure, shortened: (§1)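 MIC (μg/mL) from susceptibility testing; up to nine strains per species, incl. resistant and Polymyxin-elevated-MIC strains.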

Escherichia coli = tested on: Escherichia coli
Procedure, shortened: as §1

Klebsiella pneumoniae = tested on: Klebsiella pneumoniae
Procedure, shortened: as §1

Pseudomonas aeruginosa = tested on: Pseudomonas aeruginosa
Procedure, shortened: as §1

Compound | MIC A. baumanii ATCC BAA-747 (Acinetobacter baumannii) [µg/mL] | MIC A. baumanii NCTC 13424 (Acinetobacter baumannii) [µg/mL] | MIC E. coli 058 (Escherichia coli) [µg/mL] | MIC E. coli ATCC 25922 (Escherichia coli) [µg/mL] | MIC K. pneumoniae 065 (Klebsiella pneumoniae) [µg/mL] | MIC K. pneumoniae ATCC 13882 (Klebsiella pneumoniae) [µg/mL] | MIC P. aeruginosa ATCC 27853 (Pseudomonas aeruginosa) [µg/mL] | MIC P. aeruginosa CCUG 59347 (Pseudomonas aeruginosa) [µg/mL] | other results
CC(C)CCC(CCN)C(=O)N[C@H](C(=O)N[C@@H](CCN)C(=O)N[C@H]1CCNC(=O)[C@H]([C@@H](C)O)NC(=O)[C@H](CCN)NC(=O)[C@H](CCN)NC(=O)[C@H](CC(C)C)NC(=O)[C@@H](CC2CCCCC2)NC(=O)[C@H](CCN)NC1=O)[C@@H](C)O (single isomer, unassigned; isomer 2) [Example 89, 2-(2-aminoethyl)-5-methylhexanoyl polymyxin [D-cyclohexylalanine-6]nonapeptide. Isomer 2] | 0.5 (≈ 0.445 µM) | 0.25 (≈ 0.222 µM) | 16 (≈ 14.2 µM) | 0.125 (≈ 0.111 µM) | 32 (≈ 28.5 µM) | 0.25 (≈ 0.222 µM) | 0.5 (≈ 0.445 µM) | 1 (≈ 0.889 µM) | –
CC(C)C[C@@H]1NC(=O)[C@@H](CC2CCCCC2)NC(=O)[C@H](CCN)NC(=O)[C@@H](NC(=O)[C@H](CN)NC(=O)[C@@H](NC(=O)CC(CN)c2ccc(Cl)cc2)C(C)O)CCNC(=O)[C@H]([C@@H](C)O)NC(=O)[C@H](CCN)NC(=O)[C@H](CCN)NC1=O (single isomer, unassigned; isomer 1) [Example 50, 4-amino-3-(4-chlorophenyl) butanoyl L-Thr-L-Dap-polymyxin [D-cyclohexylalanine]-6 heptapeptide. Isomer 1] | 0.125 (≈ 0.109 µM) | 0.25 (≈ 0.217 µM) | 2 (≈ 1.74 µM) | 0.5 (≈ 0.434 µM) | 1 (≈ 0.869 µM) | 0.25 (≈ 0.217 µM) | 0.25 (≈ 0.217 µM) | 0.5 (≈ 0.434 µM) | MIC A. baumanii 053 (Acinetobacter baumannii): 32 µg/mL (≈ 27.8 µM); MIC A. baumanii 056 (Acinetobacter baumannii): 16 µg/mL (≈ 13.9 µM); MIC E. coli 061 (Escherichia coli): 16 µg/mL (≈ 13.9 µM); MIC P. aeruginosa 068 (Pseudomonas aeruginosa): 1 µg/mL (≈ 0.869 µM); MIC P. aeruginosa 070 (Pseudomonas aeruginosa): 2 µg/mL (≈ 1.74 µM)
CCC(CC)CC(CCN)C(=O)N[C@H](C(=O)N[C@@H](CCN)C(=O)N[C@H]1CCNC(=O)[C@H]([C@@H](C)O)NC(=O)[C@H](CCN)NC(=O)[C@H](CCN)NC(=O)[C@H](CC(C)C)NC(=O)[C@@H](CC2CCCCC2)NC(=O)[C@H](CCN)NC1=O)[C@@H](C)O (single isomer, unassigned; isomer 2) [Example 92, 2-(2-aminoethyl)-4-ethylhexanoyl polymyxin [D-cyclohexylalanine]-6 nonapeptide. Isomer 2] | 0.125 (≈ 0.11 µM) | 0.125 (≈ 0.11 µM) | 4 (≈ 3.51 µM) | 0.06 (≈ 0.0527 µM) | 8 (≈ 7.03 µM) | 0.25 (≈ 0.22 µM) | 0.25 (≈ 0.22 µM) | 1 (≈ 0.878 µM) | –
CC(C)C[C@@H]1NC(=O)[C@@H](CC2CCCCC2)NC(=O)[C@H](CCN)NC(=O)[C@@H](NC(=O)[C@H](CN)NC(=O)[C@@H](NC(=O)CC(CN)Cc2ccccc2)[C@@H](C)O)CCNC(=O)[C@H]([C@@H](C)O)NC(=O)[C@H](CCN)NC(=O)[C@H](CCN)NC1=O (single isomer, unassigned; isomer 2) [Example 59, 4-amino-3-benzylbutanoyl L-Thr-L-Dap-polymyxin [D-cyclohexylalanine]-6 heptapeptide. Isomer 2] | – | – | – | – | – | – | – | – | MIC A. baumanii 053 (Acinetobacter baumannii; strain 053): 32 µg/mL (≈ 28.3 µM); MIC A. baumanii 056 (Acinetobacter baumannii; strain 056): 16 µg/mL (≈ 14.2 µM); MIC A. baumanii ATCC BAA-747 (Acinetobacter baumannii; strain ATCC BAA-747): 0.03 µg/mL (≈ 0.0265 µM); MIC A. baumanii NCTC 13424 (Acinetobacter baumannii; strain NCTC 13424): 0.06 µg/mL (≈ 0.0531 µM); MIC E. coli 058 (Escherichia coli; strain 058): 2 µg/mL (≈ 1.77 µM); MIC E. coli ATCC 25922 (Escherichia coli; strain ATCC 25922): 0.125 µg/mL (≈ 0.111 µM); MIC E. coli NCTC 9001 (Escherichia coli; strain NCTC 9001): 0.06 µg/mL (≈ 0.0531 µM); MIC K. pneumoniae 063 (Klebsiella pneumoniae; strain 063): 32 µg/mL (≈ 28.3 µM); MIC K. pneumoniae 065 (Klebsiella pneumoniae; strain 065): 2 µg/mL (≈ 1.77 µM); MIC K. pneumoniae ATCC 4352 (Klebsiella pneumoniae; strain ATCC 4352): 0.125 µg/mL (≈ 0.111 µM); MIC K. pneumoniae ATCC 13882 (Klebsiella pneumoniae; strain ATCC 13882): 0.25 µg/mL (≈ 0.221 µM); MIC P. aeruginosa 068 (Pseudomonas aeruginosa; strain 068): 4 µg/mL (≈ 3.54 µM); MIC P. aeruginosa 070 (Pseudomonas aeruginosa; strain 070): 8 µg/mL (≈ 7.08 µM); MIC P. aeruginosa ATCC 27853 (Pseudomonas aeruginosa; strain ATCC 27853): 0.25 µg/mL (≈ 0.221 µM); MIC P. aeruginosa CCUG 59347 (Pseudomonas aeruginosa; strain CCUG 59347): 0.25 µg/mL (≈ 0.221 µM)
